Some test systems named below: OVCAR-8; SK-MEL-2; HOP-92; NCI-H23; KM12; SF-295; SW-620; RXF 393; LOX IMVI; A549; 786-0; ACHN; SNB-19; HCC 2998; TK-10.
What all share (test): NCI-60 cell line screen, 48 h

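96-well plates; 48 h exposure; 5 concentrations. Endpoints by linear interpolation between flanking doses. Not reached: highest tested concentration assigned. The concentration for 50% growth inhibition is given as GI50.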 The source made the active and inactive calls. Cut-off read from the data, not from the text of the source: active = GI50 up to about 1.1 µM and inactive = higher.

As to `N#CC(C(=O)/C(=N/N)C(C#N)c1ccc(Cl)cc1)c1ccc(Cl)cc1` (stereo not given), the GI50 with OVCAR-8, in the assay with SK-MEL-2, with HOP-92, with NCI-H23, in the assay with KM12 and in the assay with SF-295 was > 100 µM (inactive) each time. The GI50 in the assay on SW-620, in the assay on RXF 393, in the assay on LOX IMVI, in the assay on A549, in the assay with 786-0 and in the assay with ACHN was > 100 µM (inactive) each time. Besides, the GI50 in the assay with SNB-19, with HCC 2998 and in the assay with TK-10 was > 100 µM (inactive) each time.
For the compound `C=C(COC(C)=O)CC(/C=C(\C)CCC=C(C)C)OC(C)=O` (stereo not given), the GI50 in the assay on OVCAR-8 is > 100 µM (inactive); with SK-MEL-2, > 100 µM (inactive); with HOP-92, 46.5 µM (inactive); with NCI-H23 it was > 100 µM (inactive); with KM12 it was > 100 µM (inactive); in the assay on SF-295 it was > 100 µM (inactive). The GI50 was > 100 µM (inactive) with SW-620; > 100 µM (inactive) in the assay with RXF 393; 32.2 µM (inactive) with LOX IMVI; > 100 µM (inactive) with A549; > 100 µM (inactive) in the assay with 786-0; > 100 µM (inactive) with ACHN. Moreover, the GI50 with SNB-19, with HCC 2998 and with TK-10 was > 100 µM (inactive) in each case.
As to `CC(C)=CC(=O)C1c2cccc(O)c2C(=O)c2c(O)cc(C)cc21` (stereo not given), the GI50 in the assay on OVCAR-8 is 2.81 µM (inactive); in the assay on SK-MEL-2, 1.98 µM (inactive); in the assay on HOP-92 it was 2.75 µM (inactive); in the assay with NCI-H23 it was 2.44 µM (inactive); in the assay with KM12, 1.63 µM (inactive); with SF-295 it was 1.84 µM (inactive). Further, the GI50 in the assay with SW-620 is 3.33 µM (inactive); in the assay on RXF 393, 2.16 µM (inactive); with LOX IMVI, 1.86 µM (inactive); in the assay on A549, 1.92 µM (inactive); with 786-0, 5.06 µM (inactive); in the assay with ACHN it was 2.12 µM (inactive). The values for the GI50 in the assay with SNB-19, in the assay with HCC 2998 and in the assay with TK-10 were 2.12 µM (inactive), 1.2 µM (inactive) and 2.42 µM (inactive), respectively.
Consider `COC1OC(COCc2ccc(Cl)cc2)C(OCc2ccc(Cl)cc2)C1O` (stereo not given), for which the GI50 in the assay on OVCAR-8 is 26.2 µM (inactive); with SK-MEL-2 it was 16.3 µM (inactive); with HOP-92 it was 11.2 µM (inactive); in the assay on NCI-H23, 15.8 µM (inactive); in the assay on KM12, 15 µM (inactive); with SF-295, 18 µM (inactive). Also, the GI50 was 15.4 µM (inactive) in the assay on SW-620; 15.1 µM (inactive) in the assay with RXF 393; 16.9 µM (inactive) with LOX IMVI; 17.3 µM (inactive) in the assay on A549; 15 µM (inactive) in the assay on 786-0; 18.6 µM (inactive) in the assay on ACHN. In addition, the GI50 with SNB-19 was 18 µM (inactive); in the assay on HCC 2998, 17.7 µM (inactive); in the assay with TK-10 it was 25.5 µM (inactive).
Turning to `CCCCCCC(C)OC(=O)/C=C(\CC(=O)OC(C)CCCCCC)C(=O)OC(C)CCCCCC` (stereo not given), the GI50 in the assay with OVCAR-8, in the assay on SK-MEL-2, in the assay on HOP-92, with NCI-H23, in the assay with SF-295 and in the assay with SW-620 was > 100 µM (inactive) in each case. The GI50 with RXF 393, in the assay on LOX IMVI, in the assay on A549, in the assay on 786-0, with ACHN and in the assay with HCC 2998 was > 100 µM (inactive) each time. In addition, the GI50 with TK-10 was > 100 µM (inactive).
In the case of `COc1cc([C@@H]2c3cc4c(cc3[C@@H](NC(=O)c3ccc(N)cc3)C3COC(=O)[C@@H]32)OCO4)cc(OC)c1O` (stereo not given in full), the GI50 was 2.53 µM (inactive) in the assay on OVCAR-8; 7.74 µM (inactive) with SK-MEL-2; 4.85 µM (inactive) with HOP-92; 1.3 µM (inactive) in the assay on NCI-H23; 2.65 µM (inactive) with KM12; 1.98 µM (inactive) in the assay with SF-295. In addition, the GI50 with SW-620 is 1.03 µM (active); in the assay on RXF 393, 15.7 µM (inactive); with LOX IMVI it was 1.45 µM (inactive); in the assay on A549, 0.119 µM (active); in the assay with 786-0 it was 1.36 µM (inactive); with ACHN it was 0.597 µM (active). Moreover, the GI50 in the assay with SNB-19 is 1.34 µM (inactive); in the assay with HCC 2998 it was 3.61 µM (inactive); in the assay with TK-10 it was 9.68 µM (inactive).
On to `COC12OCCN(CCO)C1=CC(=O)C1(C)N=NC(C)C12` (stereo not given), for which the GI50 with OVCAR-8, in the assay with HOP-92, in the assay on NCI-H23, in the assay on KM12, with SF-295 and in the assay with SW-620 was > 100 µM (inactive) in each case. For the same compound, the GI50 in the assay with RXF 393, in the assay with LOX IMVI, with A549, in the assay with 786-0, in the assay on ACHN and in the assay on HCC 2998 was > 100 µM (inactive) throughout. Also, the GI50 with TK-10 was > 100 µM (inactive).
As for `OC/C=C(\I)CCCOCOCc1ccccc1`, the GI50 was 41.4 µM (inactive) in the assay on OVCAR-8; 19.2 µM (inactive) in the assay on SK-MEL-2; 15.7 µM (inactive) in the assay on HOP-92; 26.3 µM (inactive) in the assay with NCI-H23; > 100 µM (inactive) in the assay with KM12; 36.1 µM (inactive) in the assay with SF-295. Besides, the GI50 is 44 µM (inactive) in the assay with SW-620; 16.4 µM (inactive) in the assay on RXF 393; 19.2 µM (inactive) with LOX IMVI; 32 µM (inactive) with A549; 28.8 µM (inactive) with 786-0; 32.3 µM (inactive) in the assay with ACHN. Further, the results for the GI50 in the assay on SNB-19, in the assay on HCC 2998 and with TK-10 were 52.8 µM (inactive), 34 µM (inactive) and > 100 µM (inactive), respectively.
In the case of `CCCCCCCCCCCCC(Br)C(=O)NCC(N)=O` (stereo not given), the GI50 is 4.79 µM (inactive) in the assay on OVCAR-8; 11.7 µM (inactive) in the assay on SK-MEL-2; 3.7 µM (inactive) in the assay with HOP-92; 4.51 µM (inactive) in the assay on NCI-H23; 14.2 µM (inactive) with KM12; 14.3 µM (inactive) in the assay on SF-295. The GI50 in the assay with SW-620 is 16 µM (inactive); in the assay on RXF 393, 3.6 µM (inactive); in the assay on LOX IMVI, 12.4 µM (inactive); with A549, 15.6 µM (inactive); in the assay on 786-0, 6.85 µM (inactive); in the assay on ACHN it was 15 µM (inactive). The GI50 with SNB-19 is 11.2 µM (inactive); with HCC 2998, 16.1 µM (inactive); in the assay with TK-10, 18.1 µM (inactive).
Consider `O=C1Nc2nc3ccccc3n2N=C2CCCC12` (stereo not given), for which the GI50 in the assay on OVCAR-8, with SK-MEL-2, with NCI-H23, in the assay on KM12, in the assay with SF-295 and with SW-620 was > 100 µM (inactive) in each case. Also, the GI50 with RXF 393, in the assay with LOX IMVI, in the assay on A549, in the assay on 786-0, with ACHN and in the assay on SNB-19 was > 100 µM (inactive) in each case. Also, the GI50 with HCC 2998 and with TK-10 was > 100 µM (inactive) in each case.

Values taken from ChEMBL document CHEMBL1201862, “PubChem BioAssay data set” (2004).
